pEC50: −log10 of the molar value.
What follows are molecules tested on C57BL/6 mice (assay: in vivo blood pressure lowering activity, non-invasive blood pressure and heart rate after IP injection). Settings: Apelin-13 at 0.4 nmol/kg.
Description: The compounds were also assayed for blood pressure activity using C57BL/6 mice and the procedure described by Tatemoto et al. The novel peptide apelin lowers blood pressure via a nitric oxide-dependent mechanism. Regul Pept. 2001; 99: 87-92. […] Studies have been published citing reductions in blood pressure occur following peptide apelin administration. Apelin-13 was used as a positive control. Knockout C57BL/6 mice lacking APJ have cardiovascular deficiencies. […] Charo et al. Am J Physiol Heart Circ Physiol. 2009 November 297(5):[…] et al. J Physiol Biochem. 2007 December; 63(4):359-73. Blood pressure measurements in these species of mice have been reported in the literature. […] et al. Am J Physiol Heart Circ Physiol. 2003 February; 284(2):[…]-74. On the first day of the study, 11 animals were treated with apelin-13, 11 with vehicle alone, and 11 as sham controls. The two later groups were used to determine effects (if any) of the vehicle or injection alone on blood pressure (BP). The experiment was conducted as follows: The animals were restrained and a baseline measurement taken for 5 min. Animals were injected and immediately monitored for 15 minutes. The effect of test agents should be apparent within this time. Tatemoto et al. reported that the effects of Apelin-13 were apparent within minutes. Tatemoto et al. 2001 Immediately following dosing, blood pressure (diastolic, systolic and mean pressure) and heart rate for each animal was recorded for up to 15 minutes using a Kent Scientific CODA Non-Invasive Blood Pressure System. […] On day 2-5 a similar protocol was used in increasing doses. The animals were randomized daily in three groups of 11 to receive either of the two experimental compounds by IP injection. […] At the end of the 5-day dosing period, all animals were humanely euthanized. [table]

Row | Molecule | lowers blood pressure by
1 | Apelin-13 [reference compound] | ~10%

These molecules were tested against T1, apelin receptor (APJ) (Homo sapiens, UniProt P35414) (assay: in vitro apelin agonist activity (methods of Giddings et al., Apelin-13 as positive control)). Settings: not given.
T1 sequence (P35414 1-380): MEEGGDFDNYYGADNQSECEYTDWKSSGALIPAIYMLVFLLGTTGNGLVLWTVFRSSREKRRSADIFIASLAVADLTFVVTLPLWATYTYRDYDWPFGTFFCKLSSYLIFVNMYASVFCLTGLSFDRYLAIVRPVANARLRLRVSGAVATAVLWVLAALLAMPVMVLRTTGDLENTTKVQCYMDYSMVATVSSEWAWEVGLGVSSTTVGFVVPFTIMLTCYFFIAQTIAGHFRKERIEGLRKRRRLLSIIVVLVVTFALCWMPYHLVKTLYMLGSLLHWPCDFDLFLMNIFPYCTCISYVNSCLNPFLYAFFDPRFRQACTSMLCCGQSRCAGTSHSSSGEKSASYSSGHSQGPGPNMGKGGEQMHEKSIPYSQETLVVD
Format: cell-based
Text: The compounds above were studied for their in vitro activity as apelin agonists using the methods described by Giddings et al. Giddings et al., 2010 Int J High Thro Screen. 1:39-47, the contents of which are hereby incorporated by reference in its entirety.

Row | Molecule | pEC50
2 | COc1cccc(OC)c1-c1cc(C(=O)N[C@@H](CC(C)C)C(=O)O)nn1-c1ccc(F)cc1 [compound 34] | > 5.00
3 | COc1cccc(OC)c1-c1cc(C(=O)N[C@H](C(=O)NCC(=O)O)C2CCCCC2)nn1-c1ccc(F)cc1 [compound 70] | > 5.00
4 | COc1cccc(OC)c1-c1cc(C(=O)N[C@H](C(=O)O)C2CCCCC2)nn1C1CCCCC1 [compound 93, (S)-2-Cyclohexyl-2-(1-cyclohexyl-5-(2,6-dimethoxyphenyl)-1H-pyrazole-3-carboxamido)acetic acid] | > 5.00

Same assay, conditions: apelin agonist activity, Giddings et al. method; read-out: agonist activity (EC50)

Row | Molecule | pEC50
5 | COc1cccc(OC)c1-c1cc(C(=O)N[C@H](CC(=O)O)CC(C)C)nn1-c1ccc(F)cc1 [compound 56, (S)-3-(5-(2,6-Dimethoxyphenyl)-1-(4-fluorophenyl)-1H-pyrazole-3-carboxamido)-5-methylhexanoic acid] | > 5.00
6 | COc1cccc(OC)c1-c1cc(C(=O)N[C@H](CC(N)=O)CC(C)C)nn1-c1ccc(F)cc1 [compound 65] | > 5.00
7 | COc1cccc(OC)c1-c1cc(C(=O)N[C@@H](CC(=O)O)CC(C)C)nn1-c1ccc(F)cc1 [compound 67] | > 5.00
8 | COc1cccc(OC)c1-c1cc(C(=O)N[C@H](C(=O)O)C2CCCCC2)nn1-c1ccc(F)cc1 [compound 71, (S)-2-Cyclohexyl-2-(5-(2,6-dimethoxyphenyl)-1-(4-fluorophenyl)-1H-pyrazole-3-carboxamido)acetic acid] | > 5.00
9 | COc1cccc(OC)c1-c1cc(C(=O)N[C@H](CC(=O)NCC(=O)O)CC(C)C)nn1-c1ccc(F)cc1 [compound 77, (S)-2-(3-(5-(2,6-Dimethoxyphenyl)-1-(4-fluorophenyl)-1H-pyrazole-3-carboxamido)-5-methylhexanamido)acetic acid] | > 5.00
10 | COc1cccc(OC)c1-c1cc(C(=O)N[C@H](CC(=O)O)CC(C)C)nn1C1CCCCC1 [compound 79, (S)-3-(1-Cyclohexyl-5-(2,6-dimethoxyphenyl)-1H-pyrazole-3-carboxamido)-5-methylhexanoic acid] | > 5.00
11 | COc1cccc(OC)c1-c1cc(C(=O)N[C@H](CC(=O)NCC(=O)O)CC(C)C)nn1C1CCCCC1 [compound 81, (S)-2-(3-(1-Cyclohexyl-5-(2,6-dimethoxyphenyl)-1H-pyrazole-3-carboxamido)-5-methylhexanamido)acetic acid] | > 5.00
12 | COc1cccc(OCc2ccccc2)c1-c1cc(C(=O)N[C@H](CC(=O)O)CC(C)C)nn1-c1ccc(F)cc1 [compound 82, (3S)-3-(5-(2-(Benzyloxy)-6-methoxyphenyl)-1-(4-fluorophenyl)-1H-pyrazole-3-carboxamido)-5-methylhexanoic acid] | > 5.00
13 | COC(=O)COc1cccc(OC)c1-c1cc(C(=O)N[C@H](CC(=O)O)CC(C)C)nn1-c1ccc(F)cc1 [compound 86] | > 5.00
14 | COc1cccc(OC)c1-c1cc(C(=O)N[C@H](CC(=O)O)CC(C)C)nn1CC1CCCCC1 [compound 95, (S)-3-(1-(Cyclohexylmethyl)-5-(2,6-dimethoxyphenyl)-1H-pyrazole-3-carboxamido)-5-methylhexanoic acid] | > 5.00
15 | COC(=O)CNC(=O)C[C@H](CC(C)C)NC(=O)c1cc(-c2c(OC)cccc2OC)n(C2CCCCC2)n1 [compound 103, (S)-Methyl 2-(3-(1-cyclohexyl-5-(2,6-dimethoxyphenyl)-1H-pyrazole-3-carboxamido)-5-methylhexanamido)acetate] | > 5.00
16 | COc1cccc(OC)c1-c1cc(C(=O)N[C@H](CC(=O)O)CC(C)C)nn1CC(C)C [compound 118] | > 5.00
17 | COc1cccc(OCc2ccccc2)c1-c1cc(C(=O)N[C@H](CC(=O)O)CC(C)C)nn1C1CCCCC1 [compound 126, (3S)-3-(5-(2-(Benzyloxy)-6-methoxyphenyl)-1-cyclohexyl-1H-pyrazole-3-carboxamido)-5-methylhexanoic acid] | > 5.00
